Assay: Precipitation of (Z)-endoxifen by antisolvent addition, PAD and PAI (XRPD)
Format: physicochemical
Protocol: Further (Z)-endoxifen crystallizations were performed utilizing antisolvents to affect precipitation. (Z)-endoxifen was dissolved in various solvents to obtain suspensions at room temperature that were then stirred overnight and filtered with a nylon filter (0.22 μm) to obtain a clear stock solution. Two different types of precipitation experiments were performed with the resulting clear stock solutions. For precipitation by antisolvent addition to a saturated solution (PAD) experiments, antisolvent was added dropwise to the clear stock solution during stirring at room temperature at a ratio of 1:5 or 1:10 stock solution:antisolvent. For precipitation by saturated solution addition to an antisolvent (PAI) experiments, the clear stock solution was added drop wise to antisolvent under magnetic stirring at room temperature at a ratio of 1:5 or 1:10 stock solution:antisolvent. All obtained precipitates from PAD and PAI experiments were filtered under vacuum and analyzed by XRPD. […] After storage if there was no precipitate, the solutions were evaporated at room temperature. All obtained precipitates were filtered under vacuum and analyzed by XRPD. PAD and PAI experiments were also performed on the clear solutions with a concentration of 20 mg/ml (Z)-endoxifen recovered from the solubility experiments, described in EXAMPLE 19. The clear solutions recovered were (Z)-endoxifen solutions in ethyl acetate, butyl acetate, 4-met-2-pentanone, and toluene. The procedure for the PAI and PAD was the same as described above.

[1] = PAD--GRAD-EVRT, butyl acetate 0.15 mL, butyl methyl ether 1.5 mL, RT
[2] = PAD--GRAD-EVRT, tetrahydrofuran 0.03 mL sat, acetone 0.3 mL, RT
[3] = PAD-GRAD-EVRT, ethyl acetate 0.15 mL, butyl methyl ether 1.5 mL, RT
[4] = PAD-GRAD-EVRT, toluene 0.15 mL, butyl methyl ether 1.5 mL, RT
[5] = PAD, butyl acetate 0.15 mL, 20 mg/mL, antisolvent heptane 0.75 mL, RT
[6] = PAD, butyl acetate 0.15 mL, 20 mg/mL, antisolvent heptane 1.5 mL, RT
[7] = PAD, ethyl acetate 0.15 mL, 20 mg/mL, antisolvent heptane 0.75 mL, RT
[8] = PAD, ethyl acetate 0.15 mL, 20 mg/mL, antisolvent heptane 1.5 mL, RT
[9] = PAD, tetrahydrofuran 0.03 mL sat, heptane 0.15 mL, RT
[10] = PAD, tetrahydrofuran 0.03 mL sat, water 0.15 mL, RT
[11] = PAD, tetrahydrofuran 0.03 mL sat, water 0.3 mL, RT
[12] = PAD, toluene 0.15 mL, 20 mg/mL, antisolvent heptane 1.5 mL, RT
[13] = PAI-GRAD-EVRT, tetrahydrofuran 0.03 mL sat, acetone 0.3 mL, RT
[14] = PAI, tetrahydrofuran 0.03 mL sat, heptane 0.15 mL, RT
[15] = PAI, tetrahydrofuran 0.03 mL sat, water 0.3 mL, RT

Output Crystallinity [high/low/SC/oriented] [1]: low
Output Main phase [phase] [1]: Form I
Output Main phase [phase] [2]: Form XII
Output Traces [phase] [2]: Form I
Output Main phase [phase] (PAD-GRAD-EVRT, dimethylformamide 0.15 mL sat, butyl methyl ether 1.5 mL, RT): Form I
Output Crystallinity [high/low/SC/oriented] [3]: low
Output Main phase [phase] [3]: Form I
Output Crystallinity [high/low/SC/oriented] [4]: low
Output Main phase [phase] [4]: Form VIII
Output Main phase [phase] (PAD-GRAD, butyl acetate 0.15 mL, butyl methyl ether 1.5 mL, 25 to −20 °C, ramp not controlled, 1 d): no solid
Output Main phase [phase] (PAD-GRAD, dimethylformamide 0.15 mL sat, butyl methyl ether 1.5 mL, RT to −20 °C, 1 d): no solid
Output Main phase [phase] (PAD-GRAD, ethyl acetate 0.15 mL, butyl methyl ether 1.5 mL, 25 to −20 °C, ramp not controlled, 1 d): no solid
Output Main phase [phase] (PAD-GRAD, methyl isobutyl ketone 0.15 mL, butyl methyl ether 1.5 mL, 25 to −20 °C, ramp not controlled, 1 d): no solid
Output Main phase [phase] (PAD-GRAD, tetrahydrofuran 0.03 mL sat, acetone 0.3 mL, RT to −20 °C, 1 d): no solid
Output Main phase [phase] (PAD-GRAD, toluene 0.15 mL, butyl methyl ether 1.5 mL, 25 to −20 °C, ramp not controlled, 1 d): no solid
Output Main phase [phase] (PAD, butyl acetate 0.15 mL, 20 mg/mL, antisolvent butyl methyl ether 0.75 mL, RT): no solid
Output Main phase [phase] (PAD, butyl acetate 0.15 mL, 20 mg/mL, antisolvent butyl methyl ether 1.5 mL, RT): no solid
Output Crystallinity [high/low/SC/oriented] [5]: low
Output Main phase [phase] [5]: no solid
Output Crystallinity [high/low/SC/oriented] [6]: low
Output Main phase [phase] [6]: Form IX
Output Main phase [phase] (PAD, dimethylformamide 0.15 mL sat, butyl methyl ether 0.75 mL, RT): no solid
Output Main phase [phase] (PAD, dimethylformamide 0.15 mL sat, butyl methyl ether 1.5 mL, RT): no solid
Output Main phase [phase] (PAD, dimethylformamide 0.15 mL sat, water 0.75 mL, RT): amorphous
Output Main phase [phase] (PAD, ethyl acetate 0.15 mL, 20 mg/mL, antisolvent butyl methyl ether 0.75 mL, RT): no solid
Output Main phase [phase] (PAD, ethyl acetate 0.15 mL, 20 mg/mL, antisolvent butyl methyl ether 1.5 mL, RT): no solid
Output Crystallinity [high/low/SC/oriented] [7]: low
Output Main phase [phase] [7]: no solid
Output Crystallinity [high/low/SC/oriented] [8]: low
Output Main phase [phase] [8]: Form IX
Output Main phase [phase] (PAD, methyl isobutyl ketone 0.15 mL, 20 mg/mL, antisolvent butyl methyl ether 0.75 mL, RT): no solid
Output Main phase [phase] (PAD, methyl isobutyl ketone 0.15 mL, 20 mg/mL, antisolvent butyl methyl ether 1.5 mL, RT): no solid
Output Main phase [phase] (PAD, methyl isobutyl ketone 0.15 mL, 20 mg/mL, antisolvent heptane 0.75 mL, RT): no solid
Output Main phase [phase] (PAD, methyl isobutyl ketone 0.15 mL, 20 mg/mL, antisolvent heptane 1.5 mL, RT): no solid
Output Main phase [phase] (PAD, tetrahydrofuran 0.03 mL sat, acetone 0.15 mL, RT): no solid
Output Main phase [phase] (PAD, tetrahydrofuran 0.03 mL sat, acetone 0.3 mL, RT): no solid
Output Crystallinity [high/low/SC/oriented] [9]: low
Output Main phase [phase] [9]: Form XIX
Output Crystallinity [high/low/SC/oriented] [10]: low
Output Main phase [phase] [10]: no solid
Output Crystallinity [high/low/SC/oriented] [11]: low
Output Main phase [phase] [11]: Form IV
Output Main phase [phase] (PAD, toluene 0.15 mL, 20 mg/mL, antisolvent butyl methyl ether 0.75 mL, RT): no solid
Output Main phase [phase] (PAD, toluene 0.15 mL, 20 mg/mL, antisolvent butyl methyl ether 1.5 mL, RT): no solid
Output Main phase [phase] (PAD, toluene 0.15 mL, 20 mg/mL, antisolvent heptane 0.75 mL, RT): no solid
Output Crystallinity [high/low/SC/oriented] [12]: low
Output Main phase [phase] [12]: Amorphous
Output Main phase [phase] (PAI-GRAD-EVRT, dimethylformamide 0.15 mL sat, butyl methyl ether 1.5 mL, RT): Form I
Output Main phase [phase] [13]: Form XII
Output Traces [phase] [13]: Form XIII
Output Main phase [phase] (PAI-GRAD, dimethylformamide 0.15 mL sat, butyl methyl ether 1.5 mL, RT to −20 °C, 1 d): no solid
Output Main phase [phase] (PAI-GRAD, tetrahydrofuran 0.03 mL sat, acetone 0.3 mL, RT to −20 °C, 3 d): no solid
Output Main phase [phase] (PAI, dimethylformamide 0.15 mL sat, butyl methyl ether 1.5 mL, RT): no solid
Output Main phase [phase] (PAI, dimethylformamide 0.15 mL sat, water 0.75 mL, RT): Form I
Output Main phase [phase] (PAI, tetrahydrofuran 0.03 mL sat, acetone 0.3 mL, RT): no solid
Output Crystallinity [high/low/SC/oriented] [14]: low
Output Main phase [phase] [14]: Form XIX
Output Crystallinity [high/low/SC/oriented] [15]: low
Output Main phase [phase] [15]: Form IV
Compound: CC/C(=C(\c1ccc(O)cc1)c1ccc(OCCNC)cc1)c1ccccc1 [(Z)-endoxifen, (Z)-4-(1-(4-(2-(methylamino)ethoxy)phenyl)-2-phenylbut-1-enyl)phenol]
